Reference: patent US20030078212A1, “PHARMACEUTICAL COMPOSITIONS CONTAINING POLY(ADP-RIBOSE) GLYCOHYDROLASE INHIBITORS AND METHODS OF USING THE SAME” (priority 1998, published 2003)

Columns and labels:
[1] = test system: cell viability, glucose metabolism, and DNA synthesis; settings: cited from earlier work
[2] = test system: human fibroblast cells lines (W138 or BJ cells); assay: Extending proliferative capacity and lifespan of cells; format: cell-based
Experimental: At the time of subdivision, the media is aspirated, and the cells rinsed with phosphate buffer saline (PBS) and then trypsinized. The cells are counted with a Coulter counter and plated at a density of 10^5 cells per cm^2 in 6-well tissue culture plates in DMEM/199 medium supplemented with 10% bovine calf serum and varying amounts (0.10 μM, and 1 mM: from a 100×stock solution in DMEM/M199 medium) of a PARG inhibitor. This process is repeated every 7 days until the cell appear to stop dividing. The untreated (control) cells reach senescence and stop dividing after about 40 days in culture. […] The cells treated with 1 mM 3-AB will still divide after 60 days in culture.

[3] = test system: ischemia and reperfusion of the heart; settings: rabbits, cited from earlier work
Colitis = settings: rats; colitis by trinitrobenzene sulfonic acid in 50% ethanol; cited from earlier work
endotoxic shock = settings: cited from earlier work

NC(=O)c1ccccc1 [benzamide]
additional metabolic effects (side effects) [1]: affect cell viability, glucose metabolism, and DNA synthesis

NC(=O)c1cccc(N)c1 [3-aminobenzamide]
effect on lifespan of the cells ([2]; 10 μM): little or no effect | effect on lifespan of the cells ([2]; 100 μM): lengthen the lifespan of the cells | effect on lifespan and proliferative capacity of the cells ([2]; 1 mM): dramatically increases the lifespan and proliferative capacity of the cells | time in culture at which cells still divide ([2]; 1 mM, untreated cells stop dividing after about 40 days): > 60 days | reduction in infarct size in the heart ([3]; single injection 10 mg/kg, one minute before occlusion or one minute before reperfusion): 32-42% | inflammatory response, morphology and energetic status of the distal colon (Colitis): reduced the inflammatory response and restored the morphology and the energetic status of the distal colon | additional metabolic effects (side effects) [1]: affect cell viability, glucose metabolism, and DNA synthesis

NC(=O)c1cccnc1 [nicotinamide]
delayed, NO-mediated vascular failure (endotoxic shock): protects against delayed, NO-mediated vascular failure in endotoxic shock

Oc1cccc2c(O)nccc12 [1,5-dihydroxyisoquinoline]
reduction in infarct size ([3]; 1 mg/kg): 38-48%

COc1cc(C(=O)OC[C@H]2OC(OC(=O)c3cc(OC)c(OC)c(OC)c3)[C@H](OC(=O)c3cc(OC)c(OC)c(OC)c3)[C@@H](OC(=O)c3cc(OC)c(OC)c(OC)c3)[C@@H]2OC(=O)c2cc(OC)c(OC)c(OC)c2)cc(OC)c1OC (stereo partly drawn) [Example 4, 1,2,3,4,6-Penta-O-(3,4,5-Trimethoxybenzoyl)-D-Glucopyranose]
melting point: 85 to 90 °C
